From PubChem BioAssay (NCI) come the findings set out here.

Molecules are shown by their SMILES.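 Following 48 hours of exposure in 96-well plates, responses at five concentrations were used to interpolate endpoints linearly. TGI: concentration producing complete growth inhibition.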

Some test systems named below: M14 melanoma; U251 CNS; MDA-N; SK-MEL-5 melanoma; A549 NSCLC; BT-549 breast; CAKI-1 renal; T-47D breast; HS 578T breast; EKVX NSCLC.
What all share (experiment): NCI-60 cell line screen, 48 h

In the case of `Cc1ccc(S(=O)(=O)c2scc(-c3ccccc3)c2C)cc1`, the TGI with M14 melanoma, in the assay on U251 CNS, in the assay with MDA-N, in the assay with SK-MEL-5 melanoma, with A549 NSCLC and with BT-549 breast was over 100 µM each time. The TGI with CAKI-1 renal, with T-47D breast, with HS 578T breast and with EKVX NSCLC was over 100 µM each time.

Regarding `CN(C)CCNc1ccc(C(=O)NCCCN(C)CCCNC(=O)c2ccc(NCCN(C)C)c3c(=O)c4ccccc4[nH]c23)c2[nH]c3ccccc3c(=O)c12`, the TGI in the assay on M14 melanoma came to 1.53 µM; in the assay with U251 CNS, 0.589 µM; with MDA-N, 0.583 µM; in the assay with SK-MEL-5 melanoma it was 1.06 µM; with A549 NSCLC, 0.318 µM; in the assay with BT-549 breast it was 0.971 µM. The TGI with CAKI-1 renal was 31.8 µM; with T-47D breast, 2.64 µM; in the assay on HS 578T breast, 1.75 µM; in the assay on EKVX NSCLC it was 3.8 µM.

For `COc1c2cc([N+](=O)[O-])cc1CNC(=O)CN1CCOCCOCCN(CCOCCOCC1)CC(=O)NC2`, the TGI with M14 melanoma, with U251 CNS, in the assay on MDA-N, in the assay with SK-MEL-5 melanoma, in the assay on A549 NSCLC and in the assay on BT-549 breast was over 100 µM in each case. Further, the TGI in the assay on CAKI-1 renal, in the assay with T-47D breast, with HS 578T breast and in the assay with EKVX NSCLC was over 100 µM each time.

For the compound `OCC1OC(c2scc3c(=S)nc[nH]c23)C(O)C1O` (stereo not drawn), the TGI in the assay on M14 melanoma is 60.3 µM; in the assay with U251 CNS it was over 100 µM; in the assay with MDA-N, over 100 µM; with SK-MEL-5 melanoma, over 73.6 µM; with A549 NSCLC, over 100 µM; with BT-549 breast, over 100 µM. The TGI was 63.3 µM in the assay on CAKI-1 renal, 9.53 µM in the assay on T-47D breast, 6.52 µM in the assay with HS 578T breast and over 100 µM in the assay on EKVX NSCLC.

Regarding `CC[C@@]1(O)C(=O)OCc2c1cc1n(c2=O)Cc2c-1nc1ccccc1c2/C=N\NC(=O)C(N)CC(C)C` (stereo partly drawn), the TGI in the assay with M14 melanoma was 0.648 µM; in the assay on U251 CNS, 0.646 µM; in the assay on MDA-N, over 100 µM; in the assay on SK-MEL-5 melanoma, 0.0807 µM; with A549 NSCLC, 2.16 µM; in the assay on BT-549 breast, over 100 µM. The TGI in the assay on CAKI-1 renal is 0.181 µM; in the assay on T-47D breast it was over 100 µM; in the assay with HS 578T breast, over 100 µM; in the assay on EKVX NSCLC, over 100 µM.

Consider `O=C1C=CC2CCC1C2` (stereo not drawn), for which the TGI in the assay on M14 melanoma is over 100 µM; in the assay with U251 CNS it was over 100 µM; in the assay on MDA-N it was over 100 µM; in the assay with SK-MEL-5 melanoma it was over 100 µM; with A549 NSCLC, over 100 µM; in the assay on BT-549 breast, 73.3 µM. For the same compound, the TGI is over 100 µM in the assay on CAKI-1 renal, over 100 µM with T-47D breast, 80.4 µM with HS 578T breast and over 100 µM with EKVX NSCLC.

In the case of `CCOc1ccc2nc(NC(=O)C(=O)C(C(=O)c3ccccc3-c3ccccc3)C3OC(=O)c4ccccc43)sc2c1` (stereo not drawn), the TGI is over 67.2 µM in the assay on M14 melanoma; 31.7 µM in the assay with U251 CNS; 70.9 µM with MDA-N; 31.3 µM in the assay with SK-MEL-5 melanoma; over 71.2 µM with A549 NSCLC; 81.7 µM with BT-549 breast. The TGI was 53.2 µM in the assay on CAKI-1 renal, 60.7 µM in the assay on T-47D breast, over 100 µM with HS 578T breast and 47.5 µM with EKVX NSCLC.

With `CNC(=O)c1ccccc1-[s+]1c2ccccc2c(=O)n1C` (stereo not drawn), the TGI in the assay on M14 melanoma, in the assay with U251 CNS, in the assay with MDA-N, with SK-MEL-5 melanoma, in the assay on A549 NSCLC and in the assay on BT-549 breast was over 100 µM throughout. For the same compound, the TGI in the assay with CAKI-1 renal, in the assay on T-47D breast, in the assay with HS 578T breast and with EKVX NSCLC was over 100 µM in each case.

Consider `CC(=O)NC1C(OCc2ccccc2)OC(CO)C(O)C1OCC(=O)NC(C)C(=O)NC(CCC(=O)NCCCCNc1ccc([N+](=O)[O-])c2[nH]c3ccccc3c(=O)c12)C(N)=O` (stereo not drawn), for which the TGI with M14 melanoma, in the assay on U251 CNS, in the assay on MDA-N, with A549 NSCLC, in the assay with BT-549 breast and in the assay on CAKI-1 renal was over 100 µM in each case. Moreover, the TGI with T-47D breast is over 100 µM; in the assay with HS 578T breast, 75.2 µM; in the assay with EKVX NSCLC, over 100 µM.

In the case of `OCCOc1ccc(-c2cc(-c3ccccn3)nc(-c3ccccn3)c2)cc1`, the TGI is 3.91 µM in the assay on M14 melanoma; over 100 µM with U251 CNS; over 100 µM in the assay with MDA-N; 8.54 µM with SK-MEL-5 melanoma; over 39.5 µM in the assay with A549 NSCLC; over 100 µM in the assay with BT-549 breast. For the same compound, the TGI is 17.7 µM in the assay on CAKI-1 renal, over 100 µM with T-47D breast, over 100 µM in the assay on HS 578T breast and over 100 µM with EKVX NSCLC.

In the case of `COc1ccc(-c2nc(N)c(C#N)c3c2CCS(=O)(=O)c2ccc(C)cc2-3)cc1OC`, the TGI with M14 melanoma was over 100 µM; in the assay on U251 CNS, over 100 µM; in the assay with MDA-N, 51 µM; with SK-MEL-5 melanoma, over 100 µM; in the assay on A549 NSCLC it was over 100 µM; in the assay on BT-549 breast, over 100 µM. Besides, the TGI is over 100 µM in the assay on CAKI-1 renal, over 100 µM in the assay on T-47D breast and 77.6 µM in the assay on HS 578T breast.

On to `O=c1c2ccccc2oc2nc3n(c(=O)c12)CCCS3`, for which the TGI in the assay with M14 melanoma, in the assay with U251 CNS, with MDA-N, in the assay on SK-MEL-5 melanoma, with A549 NSCLC and in the assay on BT-549 breast was over 100 µM each time. Also, the TGI in the assay with CAKI-1 renal, in the assay with T-47D breast, in the assay on HS 578T breast and in the assay on EKVX NSCLC was over 100 µM in each case.

On to `O=C1CSC2(CC(/C=C/c3ccccc3)=NN2c2cccc(S(=O)(=O)O)c2)N1c1nc2ccccc2s1` (stereo not drawn), for which the TGI in the assay on M14 melanoma was over 100 µM; in the assay on U251 CNS it was 42.1 µM; in the assay with MDA-N, over 100 µM; in the assay with SK-MEL-5 melanoma, over 100 µM; with A549 NSCLC, over 100 µM; in the assay on BT-549 breast it was 52.8 µM. The TGI in the assay on CAKI-1 renal is over 100 µM; in the assay with T-47D breast, 52.5 µM; with HS 578T breast it was over 100 µM; in the assay with EKVX NSCLC it was over 100 µM.
